The subject of assay [1] is HUVEC. Briefly: Cytoprotective activity against H2O2-induced cell injury in HUVEC assessed as increase in cell viability at 10 uM pretreated for 24 hrs followed by H2O2-stimulation after 2 hrs by MTT assay. It counts as functional, cell-based. The conditions noted are these: Homo sapiens. For orientation: Tetrazolium assays rely on reduction of a dye to a coloured formazan, in cell work by metabolically active cells.

In assay [2] the test system is HUVEC. Put plainly: Cytoprotective activity against H2O2-induced cell injury in HUVEC assessed as increase in cell viability at 100 uM pretreated for 24 hrs followed by H2O2-stimulation after 2 hrs by MTT assay. As to conditions: Homo sapiens. Type of assay: functional, cell-based.

Calls of active or inactive are those of the source. The rule behind the calls is not given here.

Consider `C=C[C@]1(C)CC[C@@H](C(=C)COC(=O)CCCCCn2cc(C(=O)OCC(=C)[C@@H]3CC[C@@](C)(C=C)[C@H](C(=C)C)C3)nn2)C[C@H]1C(=C)C`, for which the result in the assay with HUVEC [1] was Active.

Take `C=C[C@]1(C)CC[C@@H](C(=C)COCCCCOCC(=C)[C@@H]2CC[C@@](C)(C=C)[C@H](C(=C)C)C2)C[C@H]1C(=C)C`: the outcome with HUVEC [1] was Active.

Consider `C=C[C@]1(C)CC[C@@H](C(=C)COC(=O)c2ccc(C(=O)OCC(=C)[C@@H]3CC[C@@](C)(C=C)[C@H](C(=C)C)C3)cc2)C[C@H]1C(=C)C`, for which the result with HUVEC [1] was Active.

As to `C=C[C@]1(C)CC[C@@H](C(=C)COC(=O)CC(=O)OCC(=C)[C@@H]2CC[C@@](C)(C=C)[C@H](C(=C)C)C2)C[C@H]1C(=C)C`, the result in the assay on HUVEC [1] was Active.

Consider `C=C[C@]1(C)CC[C@@H](C(=C)COC(=O)COCC(=O)OCC(=C)[C@@H]2CC[C@@](C)(C=C)[C@H](C(=C)C)C2)C[C@H]1C(=C)C`, for which, in the assay on HUVEC [1], the result was Active.

With `C=C[C@]1(C)CC[C@@H](C(=C)COC(=O)c2cn(CCCCCCn3cc(C(=O)OCC(=C)[C@@H]4CC[C@@](C)(C=C)[C@H](C(=C)C)C4)nn3)nn2)C[C@H]1C(=C)C`, the result with HUVEC [1] was Active.

Turning to `C=C[C@]1(C)CC[C@@H](C(=C)COC(=O)C[C@H](N)C(=O)OCC(=C)[C@@H]2CC[C@@](C)(C=C)[C@H](C(=C)C)C2)C[C@H]1C(=C)C`, the outcome in the assay on HUVEC [1] was Active.

Regarding `C=C[C@]1(C)CC[C@@H](C(=C)COC(=O)CCC(=O)N2CCN(C(=O)CCC(=O)OCC(=C)[C@@H]3CC[C@@](C)(C=C)[C@H](C(=C)C)C3)CC2)C[C@H]1C(=C)C`, the result with HUVEC [1] was Active.

Turning to `C=C[C@]1(C)CC[C@@H](C(=C)COC(=O)CCCn2cc(C(=O)OCC(=C)[C@@H]3CC[C@@](C)(C=C)[C@H](C(=C)C)C3)nn2)C[C@H]1C(=C)C`, the outcome in the assay with HUVEC [1] was Active.

As to `C=C[C@]1(C)CC[C@@H](C(=C)COC(=O)CCCN2CCN(CCCC(=O)OCC(=C)[C@@H]3CC[C@@](C)(C=C)[C@H](C(=C)C)C3)CC2)C[C@H]1C(=C)C`, the result with HUVEC [1] was Active.

Turning to `C=C[C@]1(C)CC[C@@H](C(=C)COCc2cn(CCCCCC(=O)OCC(=C)[C@@H]3CC[C@@](C)(C=C)[C@H](C(=C)C)C3)nn2)C[C@H]1C(=C)C`, in the assay with HUVEC [1], the outcome was Active.

As to `C=C[C@]1(C)CC[C@@H](C(=C)COC(=O)CCCC(=O)OCC(=C)[C@@H]2CC[C@@](C)(C=C)[C@H](C(=C)C)C2)C[C@H]1C(=C)C`, the outcome with HUVEC [1] was Active.

Turning to `C=C[C@]1(C)CC[C@@H](C(=C)COC(=O)CCCCn2cc(C(=O)OCC(=C)[C@@H]3CC[C@@](C)(C=C)[C@H](C(=C)C)C3)nn2)C[C@H]1C(=C)C`, the result in the assay on HUVEC [1] was Active.

Take `C=C[C@]1(C)CC[C@@H](C(=C)COC(=O)[C@@H]2[C@H](C(=O)OCC(=C)[C@@H]3CC[C@@](C)(C=C)[C@H](C(=C)C)C3)[C@@H]3C=C[C@H]2C3)C[C@H]1C(=C)C`: in the assay on HUVEC [1], the result was Active.

In the case of `C=C[C@]1(C)CC[C@@H](C(=C)COCc2cn(CCCCC(=O)OCC(=C)[C@@H]3CC[C@@](C)(C=C)[C@H](C(=C)C)C3)nn2)C[C@H]1C(=C)C`, the outcome in the assay on HUVEC [1] was Active.

Consider `C=C[C@]1(C)CC[C@@H](C(=C)COC(=O)C(=O)OCC(=C)[C@@H]2CC[C@@](C)(C=C)[C@H](C(=C)C)C2)C[C@H]1C(=C)C`, for which the outcome in the assay on HUVEC [1] was Active.

On to `C=C[C@]1(C)CC[C@@H](C(=C)COC(=O)c2cccc(C(=O)OCC(=C)[C@@H]3CC[C@@](C)(C=C)[C@H](C(=C)C)C3)c2)C[C@H]1C(=C)C`, for which the result in the assay with HUVEC [1] was Active.

Take `C=C[C@]1(C)CC[C@@H](C(=C)COC(=O)CCN2CCN(CCC(=O)OCC(=C)[C@@H]3CC[C@@](C)(C=C)[C@H](C(=C)C)C3)CC2)C[C@H]1C(=C)C`: in the assay on HUVEC [1], the outcome was Active.

`C=C[C@]1(C)CC[C@@H](C(=C)COC(=O)CC[C@H](N)C(=O)OCC(=C)[C@@H]2CC[C@@](C)(C=C)[C@H](C(=C)C)C2)C[C@H]1C(=C)C`: the outcome in the assay on HUVEC [1] was Active.

For the molecule `C=C[C@]1(C)CC[C@@H](C(=C)COCc2cn(CCCCCCn3cc(COCC(=C)[C@@H]4CC[C@@](C)(C=C)[C@H](C(=C)C)C4)nn3)nn2)C[C@H]1C(=C)C`, in the assay on HUVEC [1], the result was Active.

In the case of `C=C[C@]1(C)CC[C@@H](C(=C)COC(=O)c2cccc3cccc(C(=O)OCC(=C)[C@@H]4CC[C@@](C)(C=C)[C@H](C(=C)C)C4)c23)C[C@H]1C(=C)C`, the outcome in the assay on HUVEC [1] was Active.

As for `C=C[C@]1(C)CC[C@@H](C(=C)COC(=O)CCCN(C)CCN(C)CCCC(=O)OCC(=C)[C@@H]2CC[C@@](C)(C=C)[C@H](C(=C)C)C2)C[C@H]1C(=C)C`, the outcome in the assay on HUVEC [1] was Active.

For `C=C[C@]1(C)CC[C@@H](C(=C)COC(=O)CCN(C)CCN(C)CCC(=O)OCC(=C)[C@@H]2CC[C@@](C)(C=C)[C@H](C(=C)C)C2)C[C@H]1C(=C)C`, the result in the assay with HUVEC [1] was Active.

Consider `C=C[C@]1(C)CC[C@@H](C(=C)CN(C)CCN(C)CC(=C)[C@@H]2CC[C@@](C)(C=C)[C@H](C(=C)C)C2)C[C@H]1C(=C)C`, for which the result in the assay with HUVEC [1] was Active.

Consider VITAMIN E, for which the outcome with HUVEC [2] was Active.

Take `C=C[C@]1(C)CC[C@@H](C(=C)COC(=O)CCC(=O)OCC(=C)[C@@H]2CC[C@@](C)(C=C)[C@H](C(=C)C)C2)C[C@H]1C(=C)C`: the result with HUVEC [1] was Active.

Regarding `C=C[C@]1(C)CC[C@@H](C(=C)COC(=O)c2cn(CCCCn3cc(C(=O)OCC(=C)[C@@H]4CC[C@@](C)(C=C)[C@H](C(=C)C)C4)nn3)nn2)C[C@H]1C(=C)C`, the outcome in the assay on HUVEC [1] was Active.

For `C=C[C@]1(C)CC[C@@H](C(=C)COCc2cn(CCCCn3cc(COCC(=C)[C@@H]4CC[C@@](C)(C=C)[C@H](C(=C)C)C4)nn3)nn2)C[C@H]1C(=C)C`, the outcome in the assay with HUVEC [1] was Active.

For `C=C[C@]1(C)CC[C@@H](C(=C)CN2CCN(CC(=C)[C@@H]3CC[C@@](C)(C=C)[C@H](C(=C)C)C3)CC2)C[C@H]1C(=C)C`, the outcome in the assay on HUVEC [1] was Active.

For the molecule `C=C[C@]1(C)CC[C@@H](C(=C)COCc2cn(CCCC(=O)OCC(=C)[C@@H]3CC[C@@](C)(C=C)[C@H](C(=C)C)C3)nn2)C[C@H]1C(=C)C`, the outcome in the assay with HUVEC [1] was Active.

Source of the values: ChEMBL document CHEMBL4004891, “Antioxidant Properties of Novel Dimers Derived from Natural β-Elemene through Inhibiting H2O2-Induced Apoptosis” (ACS Med Chem Lett, 2017).
